ChEMBL document CHEMBL3797166, “Identification of N-phenyl-2-(N-phenylphenylsulfonamido)acetamides as new RORγ inverse agonists: Virtual screening, structure-based optimization, and biological evaluation” (Eur J Med Chem, 2016)
Activity calls are given as the source filed them. No cut-off for these calls is given here.

How the values were obtained:
[1] = molecular target: T1, Nuclear receptor ROR-gamma (Homo sapiens, UniProt P51449); test: Displacement of N-terminal biotinylated SRC1-4 coactivator peptide from N-terminal His6-fused human RORgamma-LBD (262 to 507 residues) expressed in Escherichia coli BL21 (DE3) by luminescence-based Alphascreen assay
T1 sequence (P51449 whole entry): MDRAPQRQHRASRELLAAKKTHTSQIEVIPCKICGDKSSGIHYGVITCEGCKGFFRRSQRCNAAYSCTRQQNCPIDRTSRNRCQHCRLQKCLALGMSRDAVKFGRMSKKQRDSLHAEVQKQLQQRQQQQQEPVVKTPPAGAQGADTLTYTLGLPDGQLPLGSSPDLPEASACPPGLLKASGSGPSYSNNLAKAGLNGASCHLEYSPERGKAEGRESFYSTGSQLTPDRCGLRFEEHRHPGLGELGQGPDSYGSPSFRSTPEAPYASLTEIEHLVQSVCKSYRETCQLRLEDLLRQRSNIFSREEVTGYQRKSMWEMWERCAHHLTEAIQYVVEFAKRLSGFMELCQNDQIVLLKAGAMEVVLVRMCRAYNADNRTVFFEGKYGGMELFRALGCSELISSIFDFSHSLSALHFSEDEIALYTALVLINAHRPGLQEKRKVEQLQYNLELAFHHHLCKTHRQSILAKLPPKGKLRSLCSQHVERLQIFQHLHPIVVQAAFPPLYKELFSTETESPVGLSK

[2] = molecular target: T1, Nuclear receptor ROR-gamma; test: Inhibition of Gal4-RORgamma-LBD (180 to 507 residues) (unknown origin) expressed in HEK293T cells after 24 hrs by dual-luciferase reporter assay; type: cell-based, HEK-293T
[3] = molecular target: T2, Nuclear receptor ROR-gamma (Homo sapiens) (UniProt P51449)
T2 sequence (whole entry): T1 sequence (P51449 whole entry)
Description: Binding affinity to N-terminal His6-fused human RORgamma-LBD (262 to 507 residues) expressed in Escherichia coli BL21 (DE3) assessed as inhibition of thermal stability activity at 200 uM incubated for 30 mins by RT-PCR analysis

Cc1ccc(S(=O)(=O)N(CC(=O)Nc2ccc(C#N)cc2)c2ccc(C(F)(F)F)cc2)cc1
IC50 ([1]; read-out: IC50): 1.07 µM | IC50 ([2]; read-out: IC50): 0.62 µM | ΔTm [3]: 3.05 °C

Cc1ccc(S(=O)(=O)N(CC(=O)Nc2ccc(O)cc2)c2cccc(C(F)(F)F)c2)cc1
IC50 ([1]; read-out: IC50): 13.6 µM | IC50 ([2]; read-out: IC50): 8.34 µM | ΔTm [3]: 1.6 °C

Cc1ccc(S(=O)(=O)N(CC(=O)O)c2cccc(C(F)(F)F)c2)cc1
IC50 ([1]; read-out: IC50): 93.3 µM | IC50 ([2]; read-out: IC50): 152 µM | deltaTm [3]: inactive

Cc1ccc(S(=O)(=O)N(CC(=O)Nc2ccc(C#N)cc2)c2ccc(F)cc2)cc1
IC50 ([1]; read-out: IC50): 36.1 µM | IC50 ([2]; read-out: IC50): 0.91 µM | ΔTm [3]: 2.15 °C

Cc1ccc(S(=O)(=O)N(CC(=O)Nc2ccc(C#N)cc2)c2ccc(Cl)c(Cl)c2)cc1
IC50 ([1]; read-out: IC50): 0.22 µM | IC50 ([2]; read-out: IC50): 0.63 µM | ΔTm [3]: 3.5 °C

Cc1ccc(CNC(=O)CN(c2cccc(C(F)(F)F)c2)S(=O)(=O)c2ccc(C)cc2)cc1
IC50 [1]: Not Active | IC50 ([2]; read-out: IC50): 27.2 µM | ΔTm [3]: 1 °C

Cc1ccc(S(=O)(=O)N(CC(=O)Nc2ccc(C#N)cc2)c2cccc(C(F)(F)F)c2)cc1
IC50 ([1]; read-out: IC50): 0.77 µM | IC50 ([2]; read-out: IC50): 0.9 µM | ΔTm [3]: 3.5 °C

Cc1ccc(S(=O)(=O)N(CC(=O)Nc2ccc(OCc3ccccc3)cc2)c2cccc(C(F)(F)F)c2)cc1
IC50 ([1]; read-out: IC50): 93.9 µM | IC50 ([2]; hek-293t): Not Active

Cc1ccc(N(CC(=O)Nc2ccc(C#N)cc2)S(=O)(=O)Cc2ccc(F)cc2)cc1
IC50 ([1]; read-out: IC50): 25.8 µM | IC50 ([2]; read-out: IC50): 1.78 µM | ΔTm [3]: 2.5 °C

Cc1ccc(S(=O)(=O)N(CC(=O)Nc2ccc(C(N)=O)cc2)c2cccc(C(F)(F)F)c2)cc1
IC50 ([1]; read-out: IC50): 35.1 µM | IC50 ([2]; read-out: IC50): 0.42 µM | ΔTm [3]: 1.9 °C

COC(=O)c1ccc(NC(=O)CN(c2cccc(C(F)(F)F)c2)S(=O)(=O)c2ccc(C)cc2)cc1
IC50 ([1]; read-out: IC50): 11.8 µM | IC50 ([2]; read-out: IC50): 3.98 µM | ΔTm [3]: 1.15 °C

Cc1ccc(S(=O)(=O)N(CC(=O)NC2CCCCC2)c2cccc(C(F)(F)F)c2)cc1
IC50 [1]: Not Active | IC50 ([2]; read-out: IC50): 1.03 µM | ΔTm [3]: 0.1 °C

Cc1ccc(S(=O)(=O)N(CC(=O)Nc2ccc(C#N)cc2)c2ccc(C#N)cc2)cc1
IC50 ([1]; read-out: IC50): 65.3 µM | IC50 ([2]; read-out: IC50): 1.31 µM | ΔTm [3]: 1.71 °C

Cc1ccc(N(CC(=O)Nc2ccc(C#N)cc2)S(=O)(=O)c2ccc(F)cc2)cc1
IC50 ([1]; read-out: IC50): 10.3 µM | IC50 ([2]; read-out: IC50): 1.45 µM | ΔTm [3]: 2.8 °C

CCCCCCNC(=O)CN(c1cccc(C(F)(F)F)c1)S(=O)(=O)c1ccc(C)cc1
IC50 [1]: Not Active | IC50 ([2]; hek-293t): Not Active

COC(=O)c1ccc(CNC(=O)CN(c2cccc(C(F)(F)F)c2)S(=O)(=O)c2ccc(C)cc2)cc1
IC50 ([1]; read-out: IC50): 67.1 µM | IC50 ([2]; hek-293t): Not Active

Cc1ccc(S(=O)(=O)N(CC(=O)NCc2ccc(F)cc2)c2cccc(C(F)(F)F)c2)cc1
IC50 ([1]; read-out: IC50): 13.1 µM | IC50 ([2]; read-out: IC50): 7.51 µM | ΔTm [3]: 1.07 °C

CC(=O)N1CCN(C(=O)CN(c2cccc(C(F)(F)F)c2)S(=O)(=O)c2ccc(C)cc2)CC1
IC50 ([1]; read-out: IC50): 175 µM | IC50 ([2]; read-out: IC50): 10.4 µM | deltaTm [3]: inactive

Cc1ccc(S(=O)(=O)N(CC(=O)Nc2ccc(F)cc2)c2cccc(C(F)(F)F)c2)cc1
IC50 ([1]; read-out: IC50): 3.99 µM | IC50 ([2]; read-out: IC50): 3.37 µM | ΔTm [3]: 2.1 °C

Cc1ccc(S(=O)(=O)N(CC(=O)NCc2ccc(O)cc2)c2cccc(C(F)(F)F)c2)cc1
IC50 ([1]; read-out: IC50): 14.7 µM | IC50 ([2]; read-out: IC50): 22.1 µM | ΔTm [3]: 1 °C

COc1ccc(NC(=O)CN(c2cccc(C(F)(F)F)c2)S(=O)(=O)c2ccc(C)cc2)cc1OC
IC50 ([1]; read-out: IC50): 12.8 µM | IC50 ([2]; read-out: IC50): 2.44 µM | ΔTm [3]: 1.3 °C

COC(=O)c1cccc(NC(=O)CN(c2cccc(C(F)(F)F)c2)S(=O)(=O)c2ccc(C)cc2)c1
IC50 [1]: Not Active | IC50 ([2]; read-out: IC50): 6.06 µM

CC(=O)c1ccc(NC(=O)CN(c2cccc(C(F)(F)F)c2)S(=O)(=O)c2ccc(C)cc2)cc1
IC50 ([1]; read-out: IC50): 11.3 µM | IC50 ([2]; read-out: IC50): 0.59 µM | ΔTm [3]: 1.25 °C

Cc1ccc(N(CC(=O)Nc2ccc(C#N)cc2)S(=O)(=O)Cc2ccccc2)cc1
IC50 ([1]; read-out: IC50): 36.8 µM | IC50 ([2]; read-out: IC50): 0.63 µM | ΔTm [3]: 1.71 °C

COC(=O)c1ccccc1NC(=O)CN(c1cccc(C(F)(F)F)c1)S(=O)(=O)c1ccc(C)cc1
IC50 ([2]; read-out: IC50): 1.39 µM | ΔTm [3]: 2.1 °C

Cc1ccc(S(=O)(=O)N(CC(=O)Nc2cccc(C(=O)O)c2)c2cccc(C(F)(F)F)c2)cc1
IC50 ([2]; hek-293t): Not Active

Cc1ccc(S(=O)(=O)N(CC(=O)Nc2ccc(OC(F)(F)F)cc2)c2cccc(C(F)(F)F)c2)cc1
IC50 [1]: Not Active | IC50 ([2]; hek-293t): Not Active

Cc1ccc(S(=O)(=O)N(CC(=O)Nc2nc(C)cs2)c2cccc(C(F)(F)F)c2)cc1
IC50 ([1]; read-out: IC50): 15.8 µM | IC50 ([2]; read-out: IC50): 3.65 µM | ΔTm [3]: 0.8 °C

Cc1ccc(S(=O)(=O)N(CC(=O)Nc2ccc(C(O)(C(F)(F)F)C(F)(F)F)cc2)c2cccc(C(F)(F)F)c2)cc1
IC50 ([1]; read-out: IC50): 112 µM | ΔTm [3]: 0.5 °C

Cc1ccc(S(=O)(=O)N(CC(=O)NCc2ccncc2)c2cccc(C(F)(F)F)c2)cc1
IC50 ([1]; read-out: IC50): 15.2 µM | IC50 ([2]; read-out: IC50): 8.28 µM | ΔTm [3]: 2.2 °C

Cc1ccc(S(=O)(=O)N(CC(=O)Nc2ccc(F)cc2F)c2cccc(C(F)(F)F)c2)cc1
IC50 ([1]; read-out: IC50): 62.6 µM | IC50 ([2]; read-out: IC50): 4.54 µM | ΔTm [3]: 1.8 °C
